Experiment [1] is filed under the species Homo sapiens. The experiment can be described thus: Reduction in post-surgical neuropathic pain intensity in cancer patient. Also on record: scale not given: the % may be the effect or the level left. It counts as functional.
The species named for experiment [2] is Homo sapiens. The experiment can be described thus: Reduction in pain intensity in diabetic neuropathy patient. In kind it is functional. Set-up: scale not given: the % may be the effect or the level left.

With `NC12CC3CC(CC(C3)C1)C2` [AMANTADINE], the Activity in the experiment filed under Homo sapiens [1] came to 31%.

Regarding `COc1ccc2c(c1)[C@]13CCCC[C@@H]1[C@H](C2)N(C)CC3` [DEXTROMETHORPHAN], in the experiment listed under Homo sapiens [2], the Activity came to 24%.

The values are drawn from ChEMBL document CHEMBL1141457, “N-methyl-D-aspartate antagonists and neuropathic pain: the search for relief” (2007).
